How the values were obtained:
[1] = system: allergic conjunctival itch; test: Allergic conjunctival itch model; format: in vivo; settings: FIGS. 10 and 11
Method: The compounds of this invention were tested according to the method described in “Characterization of Receptor Subtypes Involved in Prostanoid-Induced Conjunctival Pruritis and Their Role in Mediating Conjunctival Itching”, Vol. 279, No. 1, (JPET) 279, 137-142' 1996 for their efficacy in alleviating itch.

Strains TA 98 and TA 100 = test: Ames Test for mutagenicity; format: cell-based
Method: The compounds of FIGS. 3 and 3(a) were tested for mutagenicity by means of the Ames Test using Strains TA 98 and TA 100. The results were negative for both compounds.

[2] = system: Dutch-belted pigmented rabbits; test: Arachidonate induced uveitis, anterior chamber leukocyte infiltration; format: in vivo, rabbit; settings: topical, concentrations of 0.1, 0.3 and 1%; sodium arachidonate challenge; FIG. 12
Method: Arachidonate Induced Uveitis
The rational for this protocol is to use arachidonate to directly produce ocular anterior segment uveitis, as opposed to using lipopolysaccharide (LPS) to indirectly release arachidonic acid.
Conscious male or female Dutch-belted pigmented rabbits weighing 2.5-3 kg were used for all in vivo slit lamp studies. Four animals were employed per test group. The right eye of each animal receiving 35 μl of topically administered test and the contralateral left eye of each animal receiving 35 μl of topically administered vehicle (t=0 minutes), followed 30 minutes later by treatment with 35 μl of 0.5% sodium arachidonate onto the surface of both eyes (t=30 minutes). Both eyes were examined by slit lamp 60 minutes following sodium arachdionate challenge (t=90 minutes) at 16× magnification under both white light and blue light illumination at an approximate angle of 45° through 1 mm and 5 mm slit widths.
Measurement of Anterior Chamber Leukocyte Infiltration:
Anterior chamber leukocyte infiltration was measured using a numerical scoring system to estimate cell number per field defined by a 5 mm slit width: 0=no cells per field (no response); 1=1-10 cells per field (mild); 2=11-20 cells per field (moderate); 3=[…] cells per field (severe); 4=>50 cells per filed (florid). Results are reported as the mean score value±S.E.M.

SMILES	number of itch-scratch episodes [1]	mutagenicity (Ames Test) (Strains TA 98 and TA 100)	anterior chamber leukocyte infiltration (uveitis model) [2]
CCC(CC)COc1ccc(Br)cc1Cn1nc(CCC(=O)O)cc1C [Example 3, 3-{1-[5-Bromo-2-(2-ethyl-butoxy)-benzyl]-5-methyl-1H-pyrazol-3-yl}-propionic acid]	significantly lower number of itch-scratch episodes	negative	dose dependent response
CCC(CC)COc1ccc(Cl)cc1Cn1nc(CCC(=O)O)cc1C [Example 3a, 3-{1-[5-Chloro-2-(2-ethyl-butoxy)-benzyl]-5-methyl-1H-pyrazol-3-yl}-propionic acid]	significantly lower number of itch-scratch episodes	negative	dose dependent response

From patent US9394284B2, “Compounds act at multiple prostaglandin receptors giving a general anti-inflammatory response” (Allergan, Inc., priority 2010, dated 2016)
